Earlier results, collected in patent US20220288091A1, “Method for Improving Insulin Sensitivity” (priority 2019, published 2022).

How the values were obtained:
Settings in all cases: Miner et al.; cited from earlier work
receptors for progestins = target: T1, receptors for progestins (Homo sapiens, UniProt P06401)
T1 sequence (P06401 1-933): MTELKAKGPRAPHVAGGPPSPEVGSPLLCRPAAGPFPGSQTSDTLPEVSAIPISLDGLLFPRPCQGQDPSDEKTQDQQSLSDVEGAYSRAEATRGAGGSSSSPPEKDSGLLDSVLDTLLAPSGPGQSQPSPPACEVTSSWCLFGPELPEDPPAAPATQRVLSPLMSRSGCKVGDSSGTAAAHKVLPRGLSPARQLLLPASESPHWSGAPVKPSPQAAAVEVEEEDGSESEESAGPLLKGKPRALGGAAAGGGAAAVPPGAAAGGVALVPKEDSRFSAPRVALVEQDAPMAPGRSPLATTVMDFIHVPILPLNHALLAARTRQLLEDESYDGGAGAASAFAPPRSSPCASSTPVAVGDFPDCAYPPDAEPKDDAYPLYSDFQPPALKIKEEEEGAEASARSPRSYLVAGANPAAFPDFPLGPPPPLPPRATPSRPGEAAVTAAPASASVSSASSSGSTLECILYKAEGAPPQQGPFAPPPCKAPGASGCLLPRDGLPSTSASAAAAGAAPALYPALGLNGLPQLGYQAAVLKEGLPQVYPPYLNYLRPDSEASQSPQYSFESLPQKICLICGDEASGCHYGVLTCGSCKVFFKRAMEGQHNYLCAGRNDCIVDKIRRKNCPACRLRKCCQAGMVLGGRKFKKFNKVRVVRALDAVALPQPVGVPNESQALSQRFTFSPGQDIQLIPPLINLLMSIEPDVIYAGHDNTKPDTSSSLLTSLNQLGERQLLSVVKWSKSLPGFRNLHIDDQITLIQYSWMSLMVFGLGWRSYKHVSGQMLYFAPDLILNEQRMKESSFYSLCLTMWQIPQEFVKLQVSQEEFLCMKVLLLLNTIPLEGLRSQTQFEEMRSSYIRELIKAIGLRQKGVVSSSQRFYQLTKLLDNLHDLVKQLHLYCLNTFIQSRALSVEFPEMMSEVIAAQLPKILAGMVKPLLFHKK

receptors for estrogens = test system: receptors for estrogens
receptors for androgens = target: T2, receptors for androgens (Homo sapiens, UniProt P10275)
T2 sequence (P10275 1-920): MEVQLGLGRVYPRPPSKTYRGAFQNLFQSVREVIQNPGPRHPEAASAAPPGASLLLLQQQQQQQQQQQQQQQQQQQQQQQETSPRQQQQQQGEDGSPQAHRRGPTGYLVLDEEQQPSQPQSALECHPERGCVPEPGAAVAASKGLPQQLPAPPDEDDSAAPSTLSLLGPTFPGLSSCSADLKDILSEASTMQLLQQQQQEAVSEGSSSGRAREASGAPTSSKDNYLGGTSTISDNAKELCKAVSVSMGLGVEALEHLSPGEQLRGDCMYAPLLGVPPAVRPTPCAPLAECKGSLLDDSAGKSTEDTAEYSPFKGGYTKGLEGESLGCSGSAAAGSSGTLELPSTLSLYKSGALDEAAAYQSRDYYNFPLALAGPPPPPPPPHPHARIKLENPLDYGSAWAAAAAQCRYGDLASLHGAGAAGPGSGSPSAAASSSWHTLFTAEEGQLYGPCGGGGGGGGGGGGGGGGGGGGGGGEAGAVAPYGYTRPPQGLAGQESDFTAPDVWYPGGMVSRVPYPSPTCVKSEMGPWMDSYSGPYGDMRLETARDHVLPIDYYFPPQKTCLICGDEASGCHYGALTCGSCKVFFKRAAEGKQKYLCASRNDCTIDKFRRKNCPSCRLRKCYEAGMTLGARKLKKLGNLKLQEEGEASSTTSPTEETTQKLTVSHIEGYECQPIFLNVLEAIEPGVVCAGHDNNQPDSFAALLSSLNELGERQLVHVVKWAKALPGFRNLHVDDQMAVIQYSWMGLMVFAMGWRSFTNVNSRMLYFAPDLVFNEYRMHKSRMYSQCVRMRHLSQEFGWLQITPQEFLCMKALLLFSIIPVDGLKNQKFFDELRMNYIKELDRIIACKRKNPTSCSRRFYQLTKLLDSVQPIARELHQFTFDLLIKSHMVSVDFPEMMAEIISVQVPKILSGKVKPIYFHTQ

[1] = target: T3, receptors for mineralocorticoids (Homo sapiens, UniProt P08235)
T3 sequence (P08235 1-984): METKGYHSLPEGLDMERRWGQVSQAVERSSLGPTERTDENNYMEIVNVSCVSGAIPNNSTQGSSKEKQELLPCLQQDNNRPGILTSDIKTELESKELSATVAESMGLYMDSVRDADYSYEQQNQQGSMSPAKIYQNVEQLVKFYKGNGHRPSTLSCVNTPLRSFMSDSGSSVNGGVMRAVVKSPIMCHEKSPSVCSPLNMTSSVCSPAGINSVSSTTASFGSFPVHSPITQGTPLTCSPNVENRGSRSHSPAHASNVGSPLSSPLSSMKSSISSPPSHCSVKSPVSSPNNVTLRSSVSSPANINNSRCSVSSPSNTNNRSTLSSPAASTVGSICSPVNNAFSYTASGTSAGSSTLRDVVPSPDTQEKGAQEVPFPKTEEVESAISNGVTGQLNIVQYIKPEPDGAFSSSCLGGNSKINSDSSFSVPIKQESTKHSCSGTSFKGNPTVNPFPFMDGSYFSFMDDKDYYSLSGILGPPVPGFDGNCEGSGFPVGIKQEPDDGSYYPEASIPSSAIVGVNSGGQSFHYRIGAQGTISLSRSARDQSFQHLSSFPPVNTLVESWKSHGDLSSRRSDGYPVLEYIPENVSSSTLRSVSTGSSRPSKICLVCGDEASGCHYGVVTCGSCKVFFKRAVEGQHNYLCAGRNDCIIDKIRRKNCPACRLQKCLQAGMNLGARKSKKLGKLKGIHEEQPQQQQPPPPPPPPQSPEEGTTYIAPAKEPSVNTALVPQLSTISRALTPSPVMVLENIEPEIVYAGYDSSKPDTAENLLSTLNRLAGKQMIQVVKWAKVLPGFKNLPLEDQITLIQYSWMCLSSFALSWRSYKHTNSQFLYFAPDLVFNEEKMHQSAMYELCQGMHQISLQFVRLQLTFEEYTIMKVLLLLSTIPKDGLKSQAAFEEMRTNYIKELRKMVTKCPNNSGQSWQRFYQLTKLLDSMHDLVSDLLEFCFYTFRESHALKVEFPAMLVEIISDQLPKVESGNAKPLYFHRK

GR = target: T4, GR (Homo sapiens, UniProt P04150)
T4 sequence (P04150 1-777): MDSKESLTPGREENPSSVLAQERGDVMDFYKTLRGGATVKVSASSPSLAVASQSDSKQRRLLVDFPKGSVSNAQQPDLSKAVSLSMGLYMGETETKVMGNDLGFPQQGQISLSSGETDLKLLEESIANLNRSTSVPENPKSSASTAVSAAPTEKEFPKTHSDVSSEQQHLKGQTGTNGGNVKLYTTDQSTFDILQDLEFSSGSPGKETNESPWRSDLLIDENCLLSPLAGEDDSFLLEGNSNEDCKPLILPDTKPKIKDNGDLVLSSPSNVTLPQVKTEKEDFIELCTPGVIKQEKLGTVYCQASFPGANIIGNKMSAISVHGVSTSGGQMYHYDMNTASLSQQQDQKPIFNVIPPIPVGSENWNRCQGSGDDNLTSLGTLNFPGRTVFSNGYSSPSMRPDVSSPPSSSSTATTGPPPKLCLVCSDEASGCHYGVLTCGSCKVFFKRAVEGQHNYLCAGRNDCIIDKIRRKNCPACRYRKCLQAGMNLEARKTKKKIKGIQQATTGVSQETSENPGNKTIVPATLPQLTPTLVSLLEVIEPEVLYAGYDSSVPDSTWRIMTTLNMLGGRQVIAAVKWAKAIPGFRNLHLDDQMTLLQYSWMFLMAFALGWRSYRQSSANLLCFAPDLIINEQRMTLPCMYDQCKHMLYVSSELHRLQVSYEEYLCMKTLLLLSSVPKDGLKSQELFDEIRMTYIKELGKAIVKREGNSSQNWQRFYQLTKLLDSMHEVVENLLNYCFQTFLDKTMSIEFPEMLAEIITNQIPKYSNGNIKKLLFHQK

CN(C)c1ccc(C(c2ccc(N(C)C)cc2)c2cc([N+](=O)[O-])ccc2Cl)cc1 [[bis(4-N,N-dimethylaminophenyl)(2-chloro-5-nitrophenyl)methane]]
Affinity for progestin receptor (receptors for progestins): no detectable affinity
Affinity for estrogen receptor (receptors for estrogens): no detectable affinity
Affinity for androgen receptor (receptors for androgens): no detectable affinity
Affinity for mineralocorticoid receptor [1]: no detectable affinity
Affinity for the GR (GR): nanomolar affinity
